Measurements: the NIST ThermoML archive (doi:10.1021/acs.jced.5b00662)

Assay: xn = mol fraction of the nth substance listed
Details: 100 kPa, Liquid; for speed of sound: Sing-around technique in a fixed-path interferometer; for mass density: Vibrating tube method

COCCOCCO [2-(2-methoxyethoxy)ethanol] + O
Details	mass density [kg/m3]	speed of sound [m/s]
283.15 K, x1 = 0.9373	–	1473.4
283.15 K, x1 = 0.9483	1029.62	1472.6
283.15 K, x1 = 0.9601	1029.5	1471.2
283.15 K, x1 = 0.9674	1029.29	1470.8
283.15 K, x1 = 0.9893	1028.84	1468.4
283.15 K, x1 = 0.9932	1028.73	1468.6
288.15 K, x1 = 0.9373	–	1455.8
288.15 K, x1 = 0.9483	1025.24	1455.1
288.15 K, x1 = 0.9601	1025.13	1453.9
288.15 K, x1 = 0.9674	1024.9	1453.3
288.15 K, x1 = 0.9893	1024.45	1451
288.15 K, x1 = 0.9932	1024.35	1451
293.15 K, x1 = 0.9373	–	1438.7
293.15 K, x1 = 0.9483	1020.87	1438
293.15 K, x1 = 0.9601	1020.74	1436.7
293.15 K, x1 = 0.9674	1020.52	1436.1
293.15 K, x1 = 0.9893	1020.06	1433.7
293.15 K, x1 = 0.9932	1019.95	1433.4
298.15 K, x1 = 0.9373	–	1421.6
298.15 K, x1 = 0.9483	1016.47	1420.8
298.15 K, x1 = 0.9601	1016.34	1419.5
298.15 K, x1 = 0.9674	1016.12	1418.9
298.15 K, x1 = 0.9893	1015.65	1416.4
298.15 K, x1 = 0.9932	1015.55	1416.1
303.15 K, x1 = 0.9373	–	1404.5
303.15 K, x1 = 0.9483	1012.06	1403.6
303.15 K, x1 = 0.9601	1011.93	1402.3
303.15 K, x1 = 0.9674	1011.71	1401.7
303.15 K, x1 = 0.9893	1011.24	1399.1
303.15 K, x1 = 0.9932	1011.12	1398.9
308.15 K, x1 = 0.9373	–	1387.3
308.15 K, x1 = 0.9483	1007.63	1386.5
308.15 K, x1 = 0.9601	1007.5	1385.1
308.15 K, x1 = 0.9674	1007.28	1384.5
308.15 K, x1 = 0.9893	1006.8	1381.9
308.15 K, x1 = 0.9932	1006.69	1381.6
313.15 K, x1 = 0.9373	–	1370.3
313.15 K, x1 = 0.9483	1003.19	1369.4
313.15 K, x1 = 0.9601	1003.06	1368.1
313.15 K, x1 = 0.9674	1002.83	1367.5
313.15 K, x1 = 0.9893	1002.35	1364.9
313.15 K, x1 = 0.9932	1002.24	1364.6
323.15 K, x1 = 0.9373	–	1336.5
323.15 K, x1 = 0.9483	994.251	1335.6
323.15 K, x1 = 0.9601	994.119	1334.3
323.15 K, x1 = 0.9674	993.893	1333.7
323.15 K, x1 = 0.9893	993.397	1330.9
323.15 K, x1 = 0.9932	993.288	1330.3
333.15 K, x1 = 0.9373	–	1302.9
333.15 K, x1 = 0.9483	985.224	1302.1
333.15 K, x1 = 0.9601	985.089	1300.7
333.15 K, x1 = 0.9674	984.87	1300.2
333.15 K, x1 = 0.9893	984.365	1297.3
333.15 K, x1 = 0.9932	984.259	1296.7
343.15 K, x1 = 0.9373	–	1269.6
343.15 K, x1 = 0.9483	976.029	1268.8
343.15 K, x1 = 0.9601	975.972	1267.4
343.15 K, x1 = 0.9674	975.754	1266.9
343.15 K, x1 = 0.9893	975.241	1263.9
343.15 K, x1 = 0.9932	975.146	1263.3

CCOCCO [2-ethoxyethan-1-ol] + O
Details	mass density, x1 = 0.9426 [kg/m3]	mass density, x1 = 0.949 [kg/m3]	mass density, x1 = 0.9549 [kg/m3]	mass density, x1 = 0.9567 [kg/m3]	mass density, x1 = 0.967 [kg/m3]	speed of sound, x1 = 0.9426 [m/s]	speed of sound, x1 = 0.949 [m/s]	speed of sound, x1 = 0.9549 [m/s]	speed of sound, x1 = 0.9567 [m/s]	speed of sound, x1 = 0.967 [m/s]
283.15 K	943.675	943.444	943.15	943.112	942.599	1364	1365.8	1366.2	1366.8	1361.6
288.15 K	939.208	938.975	938.68	938.638	938.12	1346.2	1347.5	1347.9	1348.4	1343.5
293.15 K	934.713	934.479	934.183	934.14	933.622	1328.3	1329.2	1329.6	1330.2	1325.6
298.15 K	930.19	929.953	929.657	929.614	929.099	1310.5	1311.1	1311.3	1311.8	1307.8
303.15 K	925.638	925.399	925.102	925.055	924.54	1292.8	1293	1293.2	1292.6	1289.8
308.15 K	921.054	920.815	920.517	920.467	919.951	1275	1275.3	1275.2	1274.3	1272
313.15 K	916.435	916.194	915.892	915.843	915.328	1257.4	1257.6	1256.6	1256.1	1254.3
323.15 K	907.087	906.839	906.54	906.493	905.969	1222.2	1222.2	1220.3	1220.2	1218.9
333.15 K	897.58	897.329	897.036	896.985	896.461	1187.1	1186.9	1185.1	1184.9	1183.7
343.15 K	887.911	887.628	887.337	887.297	886.774	1152	1151.1	1150.1	1149.8	1148.6
